Reference: the supplement of paper PMC9265050, “Inhibition of RNA Binding in SND1 Increases the Levels of miR-1-3p and Sensitizes Cancer Cells to Navitoclax” (Cancers, 2022)

System: SW480
Test: drug sensitivity score (DSS, integrated dose-response area); higher = more sensitive (stronger viability reduction); extreme values may be limits of the assay
Method in brief: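 Viability of induced SW480 cells carrying control or SND1-targeting shRNA was read by CellTiter-Glo 72 h after plating at 1000 cells per well onto 384-well plates holding 525 small-molecule inhibitors at five concentrations. Induction used 0.1 µg/mL doxycycline for 7 days. Each drug sensitivity score integrates the area under a fitted non-linear dose–response model.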

[1] = shRNA: SND1 shRNA1 (SND1 silenced)
[2] = shRNA: SND1 shRNA2 (SND1 silenced)
[3] = shRNA: control shRNA (non-targeting)

`O=C(O)CSc1cc(NS(=O)(=O)c2ccc(Br)cc2)c2ccccc2c1O` [UMI-77] gave a drug sensitivity score [1] of 14.5 DSS, a drug sensitivity score [2] of 13.4 DSS and a drug sensitivity score [3] of 15.8 DSS.
Compound `COc1cc2c(NC3CCN(C(C)C)CC3)nc(C3CCCCC3)nc2cc1OCCCN1CCCC1` [UNC0638] has a drug sensitivity score [1] of 9.1 DSS, a drug sensitivity score [2] of 6.5 DSS and a drug sensitivity score [3] of 9.7 DSS.
`COc1cc2c(NC3CCN(C(C)C)CC3)nc(N3CCC(F)(F)CC3)nc2cc1OCCCN1CCCC1` [UNC0642] was tested, and the drug sensitivity score [1] was 4.7 DSS, the drug sensitivity score [2] was 8.7 DSS and the drug sensitivity score [3] was 8.4 DSS.
`O=C(c1ccc(C(=O)N2CCC(N3CCCC3)CC2)c(Nc2ccccc2)c1)N1CCC(N2CCCC2)CC1` [UNC1215] showed a drug sensitivity score [1] of 2.6 DSS, a drug sensitivity score [2] of 1.9 DSS and a drug sensitivity score [3] of 1.1 DSS.
Compound `CCCCNc1ncc(C(=O)NCc2ccc(-n3ccnc3)cc2)c(NC2CCC(O)CC2)n1` (stereo not drawn) [UNC2881] has a drug sensitivity score [1] of 0 DSS, a drug sensitivity score [2] of 0 DSS and a drug sensitivity score [3] of 0 DSS.
With `NC(=O)c1cccc(-c2cccc(OC(=O)NC3CCCCC3)c2)c1` [URB597] the drug sensitivity score [1] was 0.2 DSS and the drug sensitivity score [3] was 2.6 DSS.
`CC(C)Nc1cc(-c2c[nH]c(C(=O)N[C@H](CO)c3cccc(Cl)c3)c2)c(Cl)cn1` [Ulixertinib] was tested, and the drug sensitivity score [1] was 10.2 DSS, the drug sensitivity score [2] was 2.3 DSS and the drug sensitivity score [3] was 7.6 DSS.
In the case of `Cn1ncc(Cl)c1-c1cc(C(=O)N[C@H](CN)Cc2ccc(F)c(F)c2)oc1Cl` [Uprosertib], the drug sensitivity score [1] is reported as 0 DSS, the drug sensitivity score [2] is reported as 0.3 DSS and the drug sensitivity score [3] is reported as 0.2 DSS.
Compound `Oc1ncc(N(CCCl)CCCl)c(O)n1` [Uramustine] has a drug sensitivity score [1] of 0 DSS, a drug sensitivity score [2] of 0.1 DSS and a drug sensitivity score [3] of 0 DSS.
`CS(=O)(=O)c1ccc(-c2cnc(N)c(C(=O)Nc3ccccc3)n2)cc1` [VE-821] showed a drug sensitivity score [1] of 0 DSS and a drug sensitivity score [3] of 0.8 DSS.
Work on `O=C(O)CC1CC(c2ccccc2)=NO1` (stereo not drawn) [VGX-1027] yielded a drug sensitivity score [1] of 0.2 DSS, a drug sensitivity score [2] of 2.3 DSS and a drug sensitivity score [3] of 0 DSS.
For `CNC(=O)c1ccccc1Nc1cc(Nc2ccc(N3CCOCC3)cc2OC)ncc1C(F)(F)F` [VS-4718], the drug sensitivity score [1] was 4.8 DSS, the drug sensitivity score [2] was 3.8 DSS and the drug sensitivity score [3] was 4.1 DSS.
`O=c1ncn2nc(Sc3ccc(F)cc3F)ccc2c1-c1c(Cl)cccc1Cl` [VX 745] showed a drug sensitivity score [1] of 1.4 DSS and a drug sensitivity score [3] of 3.4 DSS.
`CCCC(CCC)C(=O)O` [Valproic acid] was tested, and the drug sensitivity score [1] was 0 DSS and the drug sensitivity score [3] was 0 DSS.
`CCCCC(=O)OCC(=O)[C@]1(O)Cc2c(O)c3c(c(O)c2[C@@H](O[C@H]2C[C@H](NC(=O)C(F)(F)F)[C@H](O)[C@H](C)O2)C1)C(=O)c1c(OC)cccc1C3=O` [Valrubicin] was tested, and the drug sensitivity score [1] was 8.7 DSS, the drug sensitivity score [2] was 7.8 DSS and the drug sensitivity score [3] was 8.2 DSS.
With `COc1cc2/c(=N/c3ccc(Br)cc3F)nc[nH]c2cc1OCC1CCN(C)CC1` [Vandetanib] the drug sensitivity score [1] was 2.1 DSS, the drug sensitivity score [2] was 5.8 DSS and the drug sensitivity score [3] was 5.9 DSS.
Compound `CCc1c(C(=O)C(N)=O)c2c(OCC(=O)O)cccc2n1Cc1ccccc1` [Varespladib] has a drug sensitivity score [1] of 0 DSS, a drug sensitivity score [2] of 1.1 DSS and a drug sensitivity score [3] of 0 DSS.
`C[C@@H]1COC(Nc2ccc3ncnc(Nc4ccc(OCc5nccs5)c(Cl)c4)c3c2)=N1` [Varlitinib] gave a drug sensitivity score [1] of 0.4 DSS, a drug sensitivity score [2] of 1.2 DSS and a drug sensitivity score [3] of 3.5 DSS.
In the case of `Clc1ccc(Nc2nnc(Cc3ccncc3)c3ccccc23)cc1` [Vatalanib], the drug sensitivity score [1] is reported as 1.8 DSS, the drug sensitivity score [2] is reported as 6.5 DSS and the drug sensitivity score [3] is reported as 2 DSS.
`C[C@]1(c2nc3c(C(N)=O)cccc3[nH]2)CCCN1` [Veliparib] gave a drug sensitivity score [1] of 0 DSS, a drug sensitivity score [2] of 0 DSS and a drug sensitivity score [3] of 0 DSS.
`CCCS(=O)(=O)Nc1ccc(F)c(C(=O)c2c[nH]c3ncc(-c4ccc(Cl)cc4)cc23)c1F` [Vemurafenib] was tested, and the drug sensitivity score [1] was 0 DSS, the drug sensitivity score [2] was 0.1 DSS and the drug sensitivity score [3] was 0 DSS.
Work on `CC1(C)CCC(CN2CCN(c3ccc(C(=O)NS(=O)(=O)c4ccc(NCC5CCOCC5)c([N+](=O)[O-])c4)c(Oc4cnc5[nH]ccc5c4)c3)CC2)=C(c2ccc(Cl)cc2)C1` [Venetoclax] yielded a drug sensitivity score [1] of 0 DSS, a drug sensitivity score [2] of 0 DSS and a drug sensitivity score [3] of 0 DSS.
`O=C(/C=C\n1cnc(-c2cc(C(F)(F)F)cc(C(F)(F)F)c2)n1)NNc1ccccn1` [Verdinexor] gave a drug sensitivity score [1] of 8 DSS, a drug sensitivity score [2] of 4.5 DSS and a drug sensitivity score [3] of 8.6 DSS.
With `CC[C@]1(O)C[C@@H]2CN(CCc3c([nH]c4ccccc34)[C@@](C(=O)OC)(c3cc4c(cc3OC)N(C)[C@H]3[C@@](O)(C(=O)OC)[C@H](OC(C)=O)[C@]5(CC)C=CCN6CC[C@]43[C@@H]65)C2)C1` [Vinblastine] the drug sensitivity score [1] was 9.6 DSS, the drug sensitivity score [2] was 8 DSS and the drug sensitivity score [3] was 15.4 DSS.
`CC[C@]1(O)C[C@H]2CN(CCc3c([nH]c4ccccc34)[C@@](C(=O)OC)(c3cc4c(cc3OC)N(C=O)[C@H]3[C@@](O)(C(=O)OC)[C@H](OC(C)=O)[C@]5(CC)C=CCN6CC[C@]43[C@@H]65)C2)C1` [Vincristine] gave a drug sensitivity score [1] of 10.1 DSS, a drug sensitivity score [2] of 9.7 DSS and a drug sensitivity score [3] of 16.6 DSS.
`CCC1=C[C@@H]2CN(C1)Cc1c([nH]c3ccccc13)[C@@](C(=O)OC)(c1cc3c(cc1OC)N(C)[C@H]1[C@@](O)(C(=O)OC)[C@H](OC(C)=O)[C@]4(CC)C=CCN5CC[C@]31[C@@H]54)C2` [Vinorelbine] showed a drug sensitivity score [1] of 19.3 DSS, a drug sensitivity score [2] of 19.5 DSS and a drug sensitivity score [3] of 22.4 DSS.
With `CS(=O)(=O)c1ccc(C(=O)Nc2ccc(Cl)c(-c3ccccn3)c2)c(Cl)c1` [Vismodegib] the drug sensitivity score [1] was 0 DSS, the drug sensitivity score [2] was 0 DSS and the drug sensitivity score [3] was 0 DSS.
Compound `CC[C@@H]1C(=O)N(C)c2cnc(Nc3ccc(C(=O)N[C@H]4CC[C@H](N5CCN(CC6CC6)CC5)CC4)cc3OC)nc2N1C(C)C` [Volasertib] has a drug sensitivity score [1] of 13.1 DSS, a drug sensitivity score [2] of 14.4 DSS and a drug sensitivity score [3] of 14.8 DSS.
`O=C(CCCCCCC(=O)Nc1ccccc1)NO` [Vorinostat] gave a drug sensitivity score [1] of 7.8 DSS, a drug sensitivity score [2] of 8 DSS and a drug sensitivity score [3] of 9.3 DSS.
With `CCn1c(=O)c(-c2cc[nH]n2)cc2c(C)nc(N)nc21` [Voxtalisib] the drug sensitivity score [1] was 7.4 DSS, the drug sensitivity score [2] was 6.5 DSS and the drug sensitivity score [3] was 5.7 DSS.
`Oc1nc(-c2ccc(C(F)(F)F)cc2)nc2c1CSCC2` [XAV-939] gave a drug sensitivity score [1] of 3.9 DSS, a drug sensitivity score [2] of 0 DSS and a drug sensitivity score [3] of 3.2 DSS.
For `O=C(Nc1ccc(-c2ccnc(Nc3ccc(N4CCOCC4)cc3)n2)cc1)C1CCCN1` (stereo not drawn) [XL019], the drug sensitivity score [1] was 0.1 DSS and the drug sensitivity score [3] was 1.7 DSS.
For `COc1cc2c(Nc3ccc(Cl)c(Cl)c3F)ncnc2cc1OC[C@@H]1C[C@@H]2CN(C)C[C@@H]2C1` [XL-647], the drug sensitivity score [1] was 2.1 DSS, the drug sensitivity score [2] was 3.1 DSS and the drug sensitivity score [3] was 2.4 DSS.
Compound `COCC[n+]1c2c(n(Cc3cnccn3)c1C)C(=O)c1ccccc1C2=O` [YM155] has a drug sensitivity score [1] of 15.5 DSS, a drug sensitivity score [2] of 8.8 DSS and a drug sensitivity score [3] of 21.4 DSS.
`FC(F)c1nc2ccccc2n1-c1nc(N2CCOCC2)nc(N2CCOCC2)n1` [ZSTK474] showed a drug sensitivity score [1] of 7.3 DSS, a drug sensitivity score [2] of 5.1 DSS and a drug sensitivity score [3] of 4 DSS.
`c1ccc(Cn2c(-c3ccc(OC[C@H](C4CCNCC4)n4c(-c5ccccc5)nc5ccccc54)cc3)nc3ccccc32)cc1` [deltarasin] was tested, and the drug sensitivity score [1] was 5.7 DSS, the drug sensitivity score [2] was 6.6 DSS and the drug sensitivity score [3] was 4.4 DSS.
